Experimental data taken from the NIST ThermoML archive (doi:10.1021/je8002964).
± gives the expanded uncertainty stated by the source.

conditions: 298.15 K; 101.33 kPa; Liquid

| SMILES | mass density [kg/m3] |
| --- | --- |
| OCC(F)(F)F [2,2,2-trifluoroethanol] | 1382.4 ± 1.2 |
| C1CCCCC1 [cyclohexane] | 774 ± 0.3 |
| CO [methanol] | 787 ± 0.4 |

Next, values leading:

| mass density [kg/m3] | SMILES |
| --- | --- |
| 680 ± 0.7 | CCCCCCC [heptane] |
| 781.4 ± 0.5 | CC(C)O [propan-2-ol] |
